According to patent US20230024302A1, “2,3,5-TRISUBSTITUTED PYRAZOLO[1,5-A]PYRIMIDINE COMPOUNDS” (Arcus Biosciences, Inc., priority 2019, published 2023):

Tests used:
PI3Kγ = molecular target: T1, PI3Kγ (Homo sapiens, UniProt P48736); test: PI3Kγ cellular assay in THP-1 cells (AKT pS473 AlphaLISA); type: cell-based; conditions: Table 1, rhMCP-1 stimulated AKT pS473, read-out: cellular potency (PI3Kγ IC50)
T1 construct: host or cells: THP-1
Outline: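 Serum-starved THP-1 cells (1.8×10^5/well, serum-free DMEM) treated with compounds from 4 nM to 30 μM in 2% DMSO, then stimulated and lysed.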

PI3Kγ (p120γ) = molecular target: T2, PI3Kγ (p120γ) (Homo sapiens, UniProt P48736); test: Inhibition of PI3K kinase activity (ADP Glo), PI3Kγ; conditions: Table 1, p120γ, read-out: biochemical potency (PI3Kγ IC50)
T2 construct: purchased Promega V1761
Outline: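 Recombinant p120γ (8 nM, 2× stock) was preincubated with compound for 1 h at rt in HEPES pH 7.4, NaCl, MgCl2 and 0.05% BSA. Reaction was started with PIP2 (0.1 mg/ml, 2×) and ATP (50 μM, 2×) and ran 60 min at rt. ADP formed was read by ADP-Glo luminescence, and IC50 came from a 4-parameter fit.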

T1 sequence (P48736 whole entry): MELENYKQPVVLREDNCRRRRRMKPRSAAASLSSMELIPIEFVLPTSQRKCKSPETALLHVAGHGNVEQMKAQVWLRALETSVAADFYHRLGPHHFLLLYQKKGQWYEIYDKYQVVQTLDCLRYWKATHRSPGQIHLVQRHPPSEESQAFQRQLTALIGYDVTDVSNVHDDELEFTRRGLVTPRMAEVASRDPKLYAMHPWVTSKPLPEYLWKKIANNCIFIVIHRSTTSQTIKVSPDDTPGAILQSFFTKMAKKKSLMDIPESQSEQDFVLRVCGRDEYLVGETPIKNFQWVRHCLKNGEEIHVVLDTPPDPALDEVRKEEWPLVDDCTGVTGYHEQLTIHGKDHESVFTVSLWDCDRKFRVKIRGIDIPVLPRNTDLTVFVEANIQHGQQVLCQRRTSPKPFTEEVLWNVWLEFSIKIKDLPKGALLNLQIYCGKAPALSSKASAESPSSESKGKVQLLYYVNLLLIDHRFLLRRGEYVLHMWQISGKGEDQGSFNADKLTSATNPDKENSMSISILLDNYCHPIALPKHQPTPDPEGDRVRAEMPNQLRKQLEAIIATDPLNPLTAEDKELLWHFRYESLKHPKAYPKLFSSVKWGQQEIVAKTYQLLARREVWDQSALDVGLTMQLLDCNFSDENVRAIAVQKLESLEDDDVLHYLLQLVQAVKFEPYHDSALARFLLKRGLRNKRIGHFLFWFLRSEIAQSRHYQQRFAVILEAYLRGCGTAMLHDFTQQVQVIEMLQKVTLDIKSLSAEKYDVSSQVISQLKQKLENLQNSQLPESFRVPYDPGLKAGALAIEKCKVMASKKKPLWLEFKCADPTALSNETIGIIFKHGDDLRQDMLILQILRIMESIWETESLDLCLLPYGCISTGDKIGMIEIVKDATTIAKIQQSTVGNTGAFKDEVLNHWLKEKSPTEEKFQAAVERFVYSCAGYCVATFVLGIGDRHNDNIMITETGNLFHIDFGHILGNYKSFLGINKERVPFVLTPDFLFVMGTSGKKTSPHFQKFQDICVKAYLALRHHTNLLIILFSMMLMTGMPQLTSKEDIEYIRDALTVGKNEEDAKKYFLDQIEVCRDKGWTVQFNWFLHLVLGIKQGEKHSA
T2 sequence (P48736 whole entry): as above

Row | SMILES | IC50 (PI3Kγ) [nM] | IC50 (PI3Kγ (p120γ)) [nM]
1 | C[C@@H](C1CC1)N1Cc2cc(-c3ccn4nc(N)c(C(=O)NC5CC5)c4n3)cc(O[C@H]3CC[C@H](O)CC3)c2C1=O [Example 149, 2-Amino-N-cyclopropyl-5-{2-[(1S)-1-cyclopropylethyl]-1-oxo-7-{[(1R,4R)-4-hydroxycyclohexyl]oxy}-2,3-dihydro-1H-isoindol-5-yl}pyrazolo[1,5-a]pyrimidine-3-carboxamide] | < 100 | < 100
2 | C[C@@H](C1CC1)N1Cc2cc(-c3ccn4nc(N)c(C(=O)NC5CC5)c4n3)cc(N3CC[C@@H](O)C3)c2C1=O [Example 150, 2-Amino-N-cyclopropyl-5-{2-[(1S)-1-cyclopropylethyl]-7-[(3R)-3-hydroxypyrrolidin-1-yl]-1-oxo-2,3-dihydro-1H-isoindol-5-yl}pyrazolo[1,5-a]pyrimidine-3-carboxamide] | < 100 | < 100
3 | C[C@@H](C1CC1)N1Cc2cc(-c3ccn4nc(N)c(C(=O)N[C@H]5CC[C@@](C)(O)CC5)c4n3)cc(N3CC[C@@H](O)C3)c2C1=O [Example 151, 2-Amino-5-{2-[(1S)-1-cyclopropylethyl]-7-[(3R)-3-hydroxypyrrolidin-1-yl]-1-oxo-2,3-dihydro-1H-isoindol-5-yl}-N-[cis-4-hydroxy-4-methylcyclohexyl]pyrazolo[1,5-a]pyrimidine-3-carboxamide] | < 100 | < 100
4 | C[C@@H](C1CC1)N1Cc2cc(-c3ccn4nc(N)c(C(=O)NC5CC5)c4n3)cc(N3CC[C@H](O)C3)c2C1=O [Example 152, 2-Amino-N-cyclopropyl-5-{2-[(1S)-1-cyclopropylethyl]-7-[(3S)-3-hydroxypyrrolidin-1-yl]-1-oxo-2,3-dihydro-1H-isoindol-5-yl}pyrazolo[1,5-a]pyrimidine-3-carboxamide] | < 100 | < 100
5 | C[C@@H](C1CC1)N1Cc2cc(-c3ccn4nc(N)c(C(=O)N[C@H]5CC[C@](O)(C(F)(F)F)CC5)c4n3)cc(N3CC[C@@H](O)C3)c2C1=O [Example 153, 2-Amino-5-{2-[(1S)-1-cyclopropylethyl]-7-[(3R)-3-hydroxypyrrolidin-1-yl]-1-oxo-2,3-dihydro-1H-isoindol-5-yl}-N-[cis-4-hydroxy-4-(trifluoromethyl)cyclohexyl]pyrazolo[1,5-a]pyrimidine-3-carboxamide] | < 100 | < 100
6 | C[C@@H](C1CC1)N1Cc2cc(-c3ccn4nc(N)c(C(=O)N[C@H]5CC[C@@](C)(O)CC5)c4n3)cc(N3CCOCC3)c2C1=O [Example 154, 2-Amino-5-{2-[(1S)-1-cyclopropylethyl]-7-(morpholin-4-yl)-1-oxo-2,3-dihydro-1H-isoindol-5-yl}-N-[cis-4-hydroxy-4-methylcyclohexyl]pyrazolo[1,5-a]pyrimidine-3-carboxamide] | < 100 | < 100
7 | C[C@@H](C1CC1)N1Cc2cc(-c3ccn4nc(N)c(C(=O)NC5CC5)c4n3)cc(OC3CC(F)(F)C3)c2C1=O [Example 157, 2-Amino-N-cyclopropyl-5-{2-[(1S)-1-cyclopropylethyl]-7-(3,3-difluorocyclobutoxy)-1-oxo-2,3-dihydro-1H-isoindol-5-yl}pyrazolo[1,5-a]pyrimidine-3-carboxamide] | < 100 | < 100
8 | CC[C@H](N1Cc2cc(-c3ccn4nc(N)c(C(=O)N[C@H](C)CO)c4n3)cc(Cl)c2C1=O)C(F)(F)F [Example 164, 2-Amino-5-{7-chloro-1-oxo-2-[(2S)-1,1,1-trifluorobutan-2-yl]-2,3-dihydro-1H-isoindol-5-yl}-N-[(2R)-1-hydroxypropan-2-yl]pyrazolo[1,5-a]pyrimidine-3-carboxamide] | < 100 | < 100
9 | C[C@@H](C1CC1)N1Cc2cc(-c3ccn4nc(N)c(C(=O)NC5CC5)c4n3)cc(C3CC3)c2C1=O [Example 165, 2-Amino-N-cyclopropyl-5-{7-cyclopropyl-2-[(1S)-1-cyclopropylethyl]-1-oxo-2,3-dihydro-1H-isoindol-5-yl}pyrazolo[1,5-a]pyrimidine-3-carboxamide] | < 100 | < 100
10 | C[C@@H](C1CC1)N1Cc2cc(-c3ccn4nc(N)c(C(=O)N[C@@H](CO)C5CC5)c4n3)cc(C3CC3)c2C1=O [Example 167, 2-Amino-5-{7-cyclopropyl-2-[(1S)-1-cyclopropylethyl]-1-oxo-2,3-dihydro-1H-isoindol-5-yl}-N-[(1R)-1-cyclopropyl-2-hydroxyethyl]pyrazolo[1,5-a]pyrimidine-3-carboxamide] | < 100 | < 100
11 | CCc1cc(-c2ccn3nc(N)c(C(=O)N[C@@H](CO)C4CC4)c3n2)cc2c1C(=O)N([C@@H](C)C1CC1)C2 [Example 168, 2-Amino-N-[(1R)-1-cyclopropyl-2-hydroxyethyl]-5-{2-[(1S)-1-cyclopropylethyl]-7-ethyl-1-oxo-2,3-dihydro-1H-isoindol-5-yl}pyrazolo[1,5-a]pyrimidine-3-carboxamide] | < 100 | < 100

Results, then the molecule that gave them:

Row | IC50 (PI3Kγ) [nM] | IC50 (PI3Kγ (p120γ)) [nM] | SMILES
12 | < 100 | < 100 | C[C@@H](C1CC1)N1Cc2cc(-c3ccn4nc(N)c(C(=O)NC5CC5)c4n3)cc(O[C@@H]3CCOC3)c2C1=O [Example 148, 2-Amino-N-cyclopropyl-5-{2-[(1S)-1-cyclopropylethyl]-1-oxo-7-[(3R)-oxolan-3-yloxy]-2,3-dihydro-1H-isoindol-5-yl}pyrazolo[1,5-a]pyrimidine-3-carboxamide]
13 | < 100 | < 100 | C[C@@H](C1CC1)N1Cc2cc(-c3ccn4nc(N)c(C(=O)NC5CC5)c4n3)cc(OCC(F)(F)F)c2C1=O [Example 155, 2-Amino-N-cyclopropyl-5-{2-[(1S)-1-cyclopropylethyl]-1-oxo-7-(2,2,2-trifluoroethoxy)-2,3-dihydro-1H-isoindol-5-yl}pyrazolo[1,5-a]pyrimidine-3-carboxamide]
14 | < 100 | < 100 | C[C@H](CO)NC(=O)c1c(N)nn2ccc(-c3cc4c(c(OCC(F)(F)F)c3)C(=O)N([C@@H](C)C3CC3)C4)nc12 [Example 156, 2-Amino-5-{2-[(1S)-1-cyclopropylethyl]-1-oxo-7-(2,2,2-trifluoroethoxy)-2,3-dihydro-1H-isoindol-5-yl}-N-[(2R)-1-hydroxypropan-2-yl]pyrazolo[1,5-a]pyrimidine-3-carboxamide]
15 | < 100 | < 100 | C[C@@H](C1CC1)N1Cc2cc(-c3ccn4nc(N)c(C(=O)NC5CC5)c4n3)cc(OC(F)F)c2C1=O [Example 158, 2-Amino-N-cyclopropyl-5-{2-[(1S)-1-cyclopropylethyl]-7-(difluoromethoxy)-1-oxo-2,3-dihydro-1H-isoindol-5-yl}pyrazolo[1,5-a]pyrimidine-3-carboxamide]
16 | < 100 | < 100 | C[C@@H](C1CC1)N1Cc2cc(-c3ccn4nc(N)c(C(=O)N[C@@H](CO)C5CC5)c4n3)cc(OC(F)F)c2C1=O [Example 159, 2-Amino-N-[(1R)-1-cyclopropyl-2-hydroxyethyl]-5-{2-[(1S)-1-cyclopropylethyl]-7-(difluoromethoxy)-1-oxo-2,3-dihydro-1H-isoindol-5-yl}pyrazolo[1,5-a]pyrimidine-3-carboxamide]
17 | < 100 | < 100 | C[C@@H](C1CC1)N1Cc2cc(-c3ccn4nc(N)c(C(=O)N[C@H]5CC[C@@](C)(O)CC5)c4n3)cc(OC(F)F)c2C1=O [Example 160, 2-Amino-5-{2-[(1S)-1-cyclopropylethyl]-7-(difluoromethoxy)-1-oxo-2,3-dihydro-1H-isoindol-5-yl}-N-[cis-4-hydroxy-4-methylcyclohexyl]pyrazolo[1,5-a]pyrimidine-3-carboxamide]
18 | < 100 | < 100 | C[C@@H](C1CC1)N1Cc2cc(-c3ccn4nc(N)c(C(=O)Nc5cccnc5)c4n3)cc(OC(F)F)c2C1=O [Example 161, 2-Amino-5-{2-[(1S)-1-cyclopropylethyl]-7-(difluoromethoxy)-1-oxo-2,3-dihydro-1H-isoindol-5-yl}-N-(pyridin-3-yl)pyrazolo[1,5-a]pyrimidine-3-carboxamide]
19 | < 100 | < 100 | C[C@@H](C1CC1)N1Cc2cc(-c3ccn4nc(N)c(C(=O)NC5CC5)c4n3)cc(Cl)c2C1=O [Example 162, 2-Amino-5-{7-chloro-2-[(1S)-1-cyclopropylethyl]-1-oxo-2,3-dihydro-1H-isoindol-5-yl}-N-cyclopropylpyrazolo[1,5-a]pyrimidine-3-carboxamide]
20 | < 100 | < 100 | C[C@H](CO)NC(=O)c1c(N)nn2ccc(-c3cc(Cl)c4c(c3)CN([C@@H](C)C3CC3)C4=O)nc12 [Example 163, 2-Amino-5-{7-chloro-2-[(1S)-1-cyclopropylethyl]-1-oxo-2,3-dihydro-1H-isoindol-5-yl}-N-[(2R)-1-hydroxypropan-2-yl]pyrazolo[1,5-a]pyrimidine-3-carboxamide]
21 | < 100 | < 100 | C[C@H](CO)NC(=O)c1c(N)nn2ccc(-c3cc4c(c(C5CC5)c3)C(=O)N([C@@H](C)C3CC3)C4)nc12 [Example 166, 2-Amino-5-{7-cyclopropyl-2-[(1S)-1-cyclopropylethyl]-1-oxo-2,3-dihydro-1H-isoindol-5-yl}-N-[(2R)-1-hydroxypropan-2-yl]pyrazolo[1,5-a]pyrimidine-3-carboxamide]
22 | < 100 | < 100 | CC(C)c1cc(-c2ccn3nc(N)c(C(=O)NC4CC4)c3n2)cc2c1C(=O)N([C@@H](C)C1CC1)C2 [Example 169, 2-Amino-N-cyclopropyl-5-{2-[(1S)-1-cyclopropylethyl]-1-oxo-7-(propan-2-yl)-2,3-dihydro-1H-isoindol-5-yl}pyrazolo[1,5-a]pyrimidine-3-carboxamide]
